Reference: patent US9932300B2, “N,N′-diarylurea compounds and N,N′-diarylthiourea compounds as inhibitors of translation initiation” (President and Fellows of Harvard College, priority 2009, dated 2018)
Where “and” joins values, the source holds several entries; their conditions need not be identical. Equal entries are not always repeated.

Tested on: eIF2-GTP-Met-tRNAi ternary complex
Assay: Ternary complex assay (dual luciferase, firefly/renilla ratio) in stable KLN-tTA/pBISA-DL(ATF-4) cells; HTS and hit confirmation
Assay type: cell-based, mouse
Design: Activity 10 uM / Activity 2.5 uM / Activity 5 uM: unit not given here
Settings: for Activity 2.5 uM: compound at 2.5 uM; for Activity 2.5 uM / Activity 10 uM / Activity 5 uM: confirmed hits of the screen (Table 5); for Activity 10 uM: compound at 10 uM; for Activity 5 uM: compound at 5 uM
Source text: For assay development, a bi-directional plasmid was designed in which a common promoter/enhancer complex drives the transcription of firefly luciferase (F-luc) ORF fused to the 5′ untranslated region (UTR) of ATF-4, and of the renilla luciferase (R-luc) ORF fused to a 90-nucleotide 5′ UTR derived from the plasmid (FIG. 6A). Because the tetracycline-regulated transactivator ((tTA), required for driving transcription from this vector) is not normally expressed in the mammalian cells, stable KLN cancer cells were constructed that expressed tTA (KLN-tTA).
The KLN-tTA colonies that drove expression of reporter genes from pBISA-DL plasmid were selected by transient transfection and dual luciferase assay. One of these KLN-tTA cell lines was transfected with the pBISA-DL^(ATF-4) expression vector, stable colonies were selected by dual luciferase assay and expanded. To determine if reduced availability of the eIF2*GTP*Met-tRNAi ternary complex increased the translation of firefly luciferase and decreased translation of renilla luciferase, selected KLN-tTA/pBISA-DL^(AFT-4) colonies were treated with thapsigargin (TG) or tunicamycin (TU), two agents known to cause phosphorylation of eIF2α.
This assay was then adapted for high throughput screening in 96 and 384 well plates. This was done by evaluating the cell density, length of exposure to compounds, DMSO tolerance and optimum firefly and renilla substrate. We then challenged these cells with thapsigargin or DMSO. […] Cell-based assays usually have higher variation than homogeneous in vitro assays due to position effect in the plate, and other variables associated with handling of cells and the plates.
Screening was conducted in 384 well white opaque plates (Nalge Nunc), 100 μl volume RPMI+10% fetal bovine serum. Cells were plated at the sub-confluent density of 10,000 cells/well, and allowed to attach for a period of 16-18 hours at 37° C., 5% CO2. Compounds were added as 1 μl of a 1 mM DMSO stock solution for a final screening concentration of 10 μM, using low-volume tips for transfer (Molecular Bioproducts). Cells were then incubated in the presence of compound for an additional sixteen hours, again at 37° C., 5% CO2. Following incubation 70 μl of the culture medium was removed from each well to allow for reagent addition and plates were allowed to equilibrate to room temperature for thirty minutes. Firefly luciferase reporter activity was then read by the addition of thirty microliters of Dual Glo Luciferase reagent (Promega), followed by one hour incubation at room temperature to allow for adequate signal buildup. Luminescence counting was conducted on a Microbeta Trilux using a 1 second read time. Renilla luciferase reporter activity was measured following addition of 30 μl Stop and Glo Luciferase reagent (Promega) and incubation identical to the one carried out for the firefly luciferase one.
Compound scores were interpreted as firefly luciferase activity divided by renilla luciferase activity, normalized to the plate's DMSO control. […] All data analysis was conducted using the BioAssay HTS software package (CambridgeSoft).
102,709 compounds in the NCI Open Chemical Repository were then screened using this HTS assay. […] Initial hits were confirmed by repeating the same dual luciferase assay in 96 well plates. Briefly, 20,000 cells/well were plated in triplicate for each concentration (10, 5 and 2.5 μM) of the compounds.

Row | Structure (SMILES) | Activity 2.5 uM | Activity 10 uM | Active or inactive N,N′-diarylurea (ternary complex assay) (designation in figure legend) | Activity 5 uM
1 | CCN(CC)C(=S)[S-].CCN(CC)C(=S)[S-].[Cu+2] [Compound 1337] | 7.15 | – | – | –
2 | Cc1nc(Nc2cccc(Cl)c2)c2cnn(-c3ccc(Cl)cc3)c2n1 [Compound 1626] | 0.79 | 5.31 | – | –
3 | O=C(Nc1ccc(Cl)c(C(F)(F)F)c1)Nc1ccc2nnsc2c1 [Compound 1780] | – | – | active | –
4 | c1ccc(NNc2ccc3ccccc3n2)cc1 [Compound 1874] | 4.27 | 3.99 | – | –
5 | O=C(CCl)Nc1cc(Cl)ccc1Cl [Compound 8275] | 0.81 | – | – | –
6 | Cc1ccc2c(c1)sc(-c1ccc(N(C)C)cc1)[n+]2C.[Cl-] [Compound 11235] | 4.88 and 7.3 | – | – | –
7 | CCCCCCCC[N+](CCCC)(CCCC)CCCC.O=C([O-])CCl [Compound 12134] | 8.83 | – | – | –
8 | CCOC(=O)N(C(=O)c1ccc([As]=O)cc1)C(=O)c1ccc([As]=O)cc1 (stereo not drawn) [Compound 12750] | 1.79 | 4.9 | – | –
9 | CCN(CC)CCCC(C)n1c(SC)nc2cc(Cl)ccc21 (stereo not drawn) [Compound 13268] | 1.46 | 3.18 | – | –
10 | CCCCCCCCC(N)CCCCCCCC.Cl [Compound 14209] | 0.85 | 14.32 | – | –
11 | Cc1cc(/C=C/C2CCC3CC(C)CCC3N2CCO)c(C)n1-c1ccccc1 (stereo not drawn) [Compound 14238] | 1.37 | 3.02 | – | –
12 | CC(=O)NC1=CC(=O)C=CC1=Nc1ccc(N(C)C)cc1C [Compound 14739] | 1.12 | 4.06 | – | –
13 | Cc1c(Cl)ccc2c(C(O)CNCc3ccccc3)cc(-c3ccc(Cl)cc3)nc12 (stereo not drawn) [Compound 14755] | 0.68 | 6.63 | – | –
14 | CC(C)Nc1nc(NC(C)C)c2cnn(-c3ccccc3)c2n1 [Compound 19143] | 1.72 | 3.2 | – | –
15 | CCCCCCCCCCCCCCCCCC[n+]1ccc(C(C)CC)cc1.[Cl-] (stereo not drawn) [Compound 19763] | 4.63 | 13.29 | – | –
16 | CCO[C@@H]([CH2][Hg][Cl])[C@](C)([CH2][Hg][Cl])OCC [Compound 21293] | 3.16 | – | – | –
17 | CN(C)c1ccc(C2(Cl)c3ccccc3N(Cc3ccccc3)c3ccccc32)cc1.Cl [Compound 21533] | 2.03 | 8.88 | – | –
18 | O=C(C=Cc1ccc([N+](=O)[O-])o1)C=Cc1ccc([N+](=O)[O-])o1 [Compound 21620] | 0.74 | 16.28 | – | –
19 | c1ccc(-c2ccc(-c3cnc(-c4ccc(-c5ccccc5)cc4)o3)cc2)cc1 [Compound 24863] | 1.87 | 3.22 | – | –
20 | CCCCN(CCCC)CCC(O)(c1ccc(OC)c2ccccc12)C(O)(CCN(CCCC)CCCC)c1ccc(OC)c2ccccc12.Cl (stereo not drawn) [Compound 26101] | 0.78 | 4.13 | – | –
21 | Br.CCC1=C(C)/C(=C/c2[nH]c(C)c(CC)c2C)N=C1C [Compound 26672] | 1.44 | 57.61 | – | –
22 | CCCCCCCCCCCCCCCC[N+](C)(C)CCCCCC(=O)OC.[Br-] [Compound 26847] | 1.83 | 8.15 | – | –
23 | O=C1C=C(N2CC2)C(=O)C(N2CC2)=C1N1CC1 [Compound 29215] | 36.4 | – | – | –
24 | Clc1ccc(-c2nc(-c3ccccc3)[nH]c2-c2ccc(Cl)c(Cl)c2)cc1Cl [Compound 30759] | 0.88 | 6.9 | – | –

Row | Structure (SMILES) | Activity 2.5 uM | Activity 10 uM | Active or inactive N,N′-diarylurea (ternary complex assay) (designation in figure legend) | Activity 5 uM
25 | COc1ccc2nc3cc(Cl)ccc3c(NCCCCN(C)C)c2c1.Cl [Compound 32929] | 0.35 | 5.76 | – | –
26 | Cc1cc[n+](C2CCC3(C)C(=CCC4C3CCC3(C)C(C(C)CCCC(C)C)CCC43)C2)cc1.Cc1ccc(S(=O)(=O)[O-])cc1 (stereo not drawn) [Compound 32994] | 2.83 | 6.52 | – | –
27 | CC(C)CCCC(C)C1CCC2C3CC=C4CC([n+]5cccc6ccccc65)CCC4(C)C3CCC12C.Cc1ccc(S(=O)(=O)[O-])cc1 (stereo not drawn) [Compound 32999] | 2.41 | 6.87 | – | –
28 | COc1ccc2nc(CCc3ccccc3)ccc2c1 [Compound 35424] | 2.55 | 3.07 | – | –
29 | CN1c2ccccc2C(c2ccccc2)c2ccc(Nc3ccccc3)cc21.Cl (stereo not drawn) [Compound 35730] | 5.35 | 6.76 | – | –
30 | Cc1ccc(C(CN(C)C)C(=O)c2ccccc2)cc1C.Cl (stereo not drawn) [Compound 36684] | 0.76 | 4.2 | – | –
31 | O=C1c2ccccc2C(=O)C2CC(c3ccccc3)=CCC12 (stereo not drawn) [Compound 38062] | 2.61 | 5.58 | – | –
32 | CC1=CC(=O)C(C(C)C)=CC1=Nc1ccc(N(C)C)cc1 [Compound 39901] | 1.41 | 4.1 | – | –
33 | CC(=O)Nc1ccccc1[As](O[As](c1ccccc1)c1ccccc1NC(C)=O)c1ccccc1 (stereo not drawn) [Compound 42108] | – | 3.7 | – | –
34 | O=C(Nc1ccc2ccccc2c1)c1cc2ccccc2cc1O [Compound 42112] | 3.76 | 3.76 | – | –
35 | CCN1/C(=C/c2cc(C)nc(-c3ccccc3)[n+]2C)C=Cc2ccccc21.[Cl-] [Compound 43683] | 3.73 | 5.26 | – | –
36 | CC(=O)Nc1cc(OC(C)=O)c2ccccc2c1OC(C)=O [Compound 45171] | 3.08 | – | – | –
37 | COc1ccc2c3c(ccc2c1)[C@@H]1C/C(=C(\OC(C)=O)C(F)(F)F)C(=O)[C@@]1(C)CC3 [Compound 45226] | 3.03 | 7.27 | – | –
38 | CC(=O)OC1CCC2(C)C3CCC4(C)C(CCC4(Br)C(=O)CBr)C3CC(Br)C2(Br)C1 (stereo not drawn) [Compound 45884] | 0.47 | 16.23 | – | –
39 | Oc1cccc(-c2ccc(-c3ccccc3)cc2)c1 [Compound 47145] | 3.4 | 5.16 | – | –
40 | N#C/C(=C(\c1ccccc1)c1ccccn1)c1ccccc1 [Compound 50915] | 1.11 | 7.81 | – | –
41 | O=Nc1c(O)ccc2ccccc12.[Fe].[Na+] [Compound 51522] | 1.66 | 10.99 | – | –
42 | Cc1cc2c(C(C)C)c(O)c(O)c(C=Nc3cc(C(F)(F)F)ccc3Cl)c2c(O)c1-c1c(C)cc2c(C(C)C)c(O)c(O)c(C=Nc3cc(C(F)(F)F)ccc3Cl)c2c1O [Compound 52531] | 0.8 | 5.18 | – | –
43 | O=C(Nc1ccc(Cl)cc1)C(Cl)C(Cl)c1ccccc1 (stereo not drawn) [Compound 54895] | – | 4.975 | – | 4.288
44 | O=C(/C=C/c1ccc(Cl)cc1)CC(Cl)c1ccc(Cl)cc1 (stereo not drawn) [Compound 54905] | – | 16.011 | – | 11.56
45 | CCCCCCCCCCCCCCCC[N+]1(C)CC2CCCCC2C1 (stereo not drawn) [Compound 55237] | – | 6.6 | – | 3.4
46 | CCCCCCCCCCCCCCCC[N+]1(CCCCCCCCCC)CC2CCCCC2C1.[I-] (stereo not drawn) [Compound 55240] | – | 5.2 | – | 4.2
47 | Cc1ccc(-c2cc(-c3ccccc3)[s+]c3ccc(C)cc23)cc1 [Compound 55867] | – | 3.2 | – | 1.1
48 | C[N+](C)=C1C=CC(=C2C=C(c3ccccc3)Oc3ccccc32)C=C1 [Compound 55869] | – | 13.613 | – | 13.24
